Experimental data as given in patent US20140256771A1, “COMPOUNDS THAT MODULATE INTRACELLULAR CALCIUM” (CalciMedica, Inc., priority 2011, published 2014).
Where two headings read alike, the source gives them in different places.

What was measured:
[1] = target: T1, Orai1/STIM1 (Homo sapiens, UniProt Q96D31); test: Fluorescence-based assay of store-operated calcium entry in Orai1/STIM1 stable cells; type: cell-based; set-up: key to Orai1/STIM1 (IC50, μmol): A < 0.6 μmol; 0.6 μmol ≦ B ≦ 1.2 μmol; C > 1.2 μmol; — = no fit; conditions: Table iii, HEK-293 cells stably expressing human STIM1 and Orai1, 50% inhibition of Peak-Basal fluo-4 signal; for IC50: read-out: Orai1/STIM1 (IC50, μmol)
T1 construct: expressed in transfected cells; host or cells: HEK-293
Procedure: A. Fluorescence-based Assay of Store-Operated Calcium Entry in Orai1/STIM1 Stable Cells.
Cells stably expressing recombinant human STIM1 and Orai1 are generated by transfecting a human Orai1 expression plasmid (pcDNA3.1-Orai1-cmyc) into HEK-293 cells stably overexpressing human STIM1 (Roos et al. 2005 JCB 169(3): 435-445). Colonies of cells stably expressing both STIM1 and Orai1 proteins are selected and then subcloned by limiting dilution. Cells were cultured at 37° C./6% CO2 in complete medium with 10% FBS and appropriate selection markers.
The day prior to performing the assay Orai1/STIM1 stable cells are plated in 50 μL of complete medium at 90-95% confluence in a 384 well plate. Cells are grown at 37° C./6% CO2 overnight. On the day of the assay, 1.5 μM fluo-4-AM (Invitrogen) in complete medium is added to the cells, which are then incubated for 1 hour at RT. Cells are washed once in Ca^2+-free HBSS (Hank's buffered saline solution) and 35 μl of Ca^2+-free HBSS is added to each well. Test compounds are added to wells in a 10 μL Ca^2+-free HBSS solution, prepared at 4.5× the desired final concentration, and incubated for 30 minutes at RT. The initial baseline fluorescence signal is then measured with a FLIPR^384 (Molecular Devices) plate reader. Calcium entry is initiated by adding 5 μl of 10× CaCl2 (10 mM) in HBSS, and changes in cellular fluorescence are measured with the FLIPR^384 plate reader. In each well, the magnitude of the fluorescence signal as a result of calcium entry into the cell is determined by calculating the difference between the peak fluorescence signal measured after calcium addition and the initial baseline fluorescence signal (designated Peak-Basal). IC50 values are typically calculated as the concentration that inhibited 50% of the Peak-Basal signal (Table A).

[2] = tested on: RBL-2H3 cells; test: Fluorescence-based assay of store-operated calcium entry in RBL-2H3 cells; type: cell-based, rat; set-up: key to RBL-2H3 (IC50, μmol): A < 0.6 μmol; 0.6 μmol ≦ B ≦ 1.2 μmol; C > 1.2 μmol; — = no fit; conditions: thapsigargin store depletion, 50% inhibition of Upslope; for IC50: Rattus norvegicus, RBL-2H3, read-out: RBL-2H3 (IC50, μmol)
Procedure: B. Fluorescence-based Assay of Store-Operated Calcium Entry in RBL-2H3Cells.
RBL-2H3 cells are obtained from ATCC and maintained in complete medium with 10% FBS at 37° C./6% CO2.
The day prior to performing the assay, RBL-2H3 cells are plated in 50 μL of complete medium in a 384 well plate. Cells are grown at 37° C./6% CO2 overnight and grow to 50-60% confluence by the next day. On the assay day, 1.5 μM Fluo-4-AM dye (Invitrogen) in complete medium is added and incubated for 1 hour at RT. Cells are washed twice in Ca^2+-free HBSS buffer and 35 μL Ca^2+-free HBSS buffer is added to each well. 10 μL of a test compound prepared in a Ca^2+-free HBSS solution at 4.5× of the desired concentration is added to a well and incubated for 5 minutes at RT. 10 μL of thapsigargin prepared in a Ca^2+-free HBSS solution at 5.5× of the desired concentration (5.5 uM) is added to each well and incubated for an additional 25 minutes. The initial baseline fluorescence signal is measured with a FLIPR^384 (Molecular Devices) plate reader. 5 μL of 12× calcium in HBSS (12 mM) is added and changes in cellular fluorescence are measured with the FLIPR^384 plate reader. In each well, the change in the fluorescent signal as a function of time due to calcium entry into the cell is determined by calculating the difference between the fluorescent signal measured 7 seconds after calcium addition and the initial baseline fluorescence signal at time zero (t=0). This parameter is designated Upslope. The IC50 value is calculated as the concentration at which 50% of the Upslope is inhibited.

T1 sequence (Q96D31 whole entry): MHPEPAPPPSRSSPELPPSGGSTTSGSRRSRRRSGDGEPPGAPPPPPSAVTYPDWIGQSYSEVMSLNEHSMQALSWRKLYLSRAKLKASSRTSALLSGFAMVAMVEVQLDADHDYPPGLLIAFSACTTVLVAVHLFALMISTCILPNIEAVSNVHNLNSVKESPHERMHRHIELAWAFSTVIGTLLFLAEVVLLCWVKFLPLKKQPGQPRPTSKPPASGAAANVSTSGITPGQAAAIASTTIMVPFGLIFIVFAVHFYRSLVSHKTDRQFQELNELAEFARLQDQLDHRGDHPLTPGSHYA

SMILES	IC50 [1]	IC50 ([2]; Table iii)	Orai1/STIM1 (IC50, μmol) [1]	RBL-2H3 (IC50, μmol) ([2]; Table iii)	IC50 ([2]; Table iv)
Cn1nc(C(F)(F)F)cc1-c1ccc(NCc2c(F)cccc2F)cc1F	< 600 nM	< 600 nM			
Cn1nc(C(F)(F)F)cc1-c1ccc(NCc2ccc(F)cc2F)cc1F	< 600 nM	< 600 nM			
Cn1nc(C(F)(F)F)cc1-c1ccc(NCc2c(F)cc(F)cc2F)cc1F	< 600 nM	< 600 nM			
Cn1nc(C(F)(F)F)cc1-c1ccc(NCc2ccncc2F)cc1F	< 600 nM	< 600 nM			
Cn1nc(C(F)(F)F)cc1-c1ccc(NCc2cncc(F)c2)cc1F	600 to 1200 nM	< 600 nM			
Cc1cnccc1CNc1ccc(-c2cc(C(F)(F)F)nn2C)c(F)c1	600 to 1200 nM	< 600 nM			
Cn1nc(C(F)(F)F)cc1-c1ccc(NCc2c(F)cccc2F)c(F)c1	< 600 nM	< 600 nM			
Cn1nc(C(F)(F)F)cc1-c1ccc(NCc2ccccc2F)c(F)c1	600 to 1200 nM	> 1200 nM			
Cn1nc(C(F)(F)F)cc1-c1ccc(NCc2c(F)cncc2F)c(F)c1	600 to 1200 nM	< 600 nM			
Cn1nc(C(F)(F)F)cc1-c1c(F)cc(NCc2c(F)cccc2F)cc1F	600 to 1200 nM	< 600 nM			
Cn1nc(C(F)(F)F)cc1-c1c(F)cc(NCc2ccccc2F)cc1F		< 600 nM	Max inh. <50%		
Cn1nc(C(F)(F)F)cc1-c1ccc(NCc2ccccc2F)cc1	< 600 nM	< 600 nM			
Cn1nc(C(F)(F)F)cc1-c1ccc(NCc2ccc(F)cc2F)cc1	< 600 nM	< 600 nM			
Fc1cccc(F)c1CNc1ccc(-n2nc(C(F)(F)F)cc2C(F)(F)F)cc1	600 to 1200 nM	< 600 nM			
Fc1cnccc1CNc1ccc(-n2nc(C(F)(F)F)cc2C(F)(F)F)cc1	600 to 1200 nM	< 600 nM			
Fc1cncc(F)c1CNc1ccc(-n2nc(C(F)(F)F)cc2C(F)(F)F)cc1	600 to 1200 nM	< 600 nM			
Cc1cc2c(cc1-c1ccc(NCc3c(F)cccc3F)cc1)OC(F)(F)O2	> 1200 nM	< 600 nM			
Cc1cc2c(cc1-c1ccc(NCc3ccccc3F)cc1)OC(F)(F)O2	> 1200 nM	< 600 nM			
Cc1cc2c(cc1-c1ccc(NCc3c(F)cncc3F)cc1)OC(F)(F)O2	< 600 nM	< 600 nM			
Cc1nnsc1CNc1ccc(-n2nc(C(F)(F)F)cc2C)cc1			—	—	

SMILES	IC50 [1]	IC50 ([2]; Table iii)	Orai1/STIM1 (IC50, μmol) [1]	RBL-2H3 (IC50, μmol) ([2]; Table iii)	IC50 ([2]; Table iv)
Cc1nc(C(F)(F)F)cn1-c1ccc(NCc2c(F)cc(F)cc2F)cc1F	< 600 nM	< 600 nM			
Cc1nc(C(F)(F)F)cn1-c1ccc(NCc2c(F)cncc2F)cc1F	< 600 nM	< 600 nM			
Cc1nc(C(F)(F)F)cn1-c1ccc(NCc2c(F)ccc(F)c2F)cc1F	< 600 nM	< 600 nM			
Cc1nc(C(F)(F)F)cn1-c1ccc(NCc2ccccc2F)cc1	< 600 nM	< 600 nM			
Cc1nc(C(F)(F)F)cn1-c1ccc(NCc2c(F)cccc2F)cc1	< 600 nM	< 600 nM			
Cc1nc(C(F)(F)F)cn1-c1ccc(NCc2c(F)cc(F)cc2F)cc1	< 600 nM	< 600 nM			
Cc1nn(C(F)F)cc1-c1ccc(NCc2ccccc2F)cc1	600 to 1200 nM	< 600 nM			
Cc1nn(C(F)F)cc1-c1ccc(NCc2c(F)cc(F)cc2F)cc1	< 600 nM	< 600 nM			
Cc1nn(C(F)F)cc1-c1ccc(NCc2c(F)ccc(F)c2F)cc1	< 600 nM	< 600 nM			
Cc1nn(C(F)F)cc1-c1ccc(NCc2ccccc2F)cc1F	< 600 nM	< 600 nM			
Cc1cccc(F)c1CNc1ccc(-c2cn(C(F)F)nc2C)c(F)c1	< 600 nM	< 600 nM			
Cc1nn(C(F)F)cc1-c1ccc(NCc2c(F)cccc2F)cc1F	< 600 nM	< 600 nM			
Cc1nn(C(F)F)cc1-c1ccc(NCc2c(F)cc(F)cc2F)cc1F	< 600 nM	< 600 nM			
CCn1nc(C(F)(F)F)cc1-c1ccc(NCc2ccccc2F)cc1	< 600 nM	< 600 nM			
CCn1nc(C(F)(F)F)cc1-c1ccc(NCc2c(F)cccc2F)cc1F	600 to 1200 nM	< 600 nM			
Cc1cccc(F)c1CNc1ccc(-c2nc(C(F)(F)F)sc2C)cc1	600 to 1200 nM	< 600 nM			
Cc1sc(C(F)(F)F)nc1-c1ccc(NCc2c(F)cc(F)cc2F)cc1	< 600 nM	< 600 nM			
Cc1cc(F)ccc1CNc1ccc(-n2cc(C(F)(F)F)nc2C)c(F)c1	> 1200 nM	< 600 nM			
Cc1cc(F)ccc1CNc1ccc(-c2cc(C(F)F)nn2C)c(F)c1	600 to 1200 nM	< 600 nM			
CCn1nc(C(F)(F)F)cc1-c1ccc(NCc2c(F)cc(F)cc2F)cc1F	600 to 1200 nM	< 600 nM			

Further lines, results first:

IC50 [1]	IC50 ([2]; Table iii)	Orai1/STIM1 (IC50, μmol) [1]	RBL-2H3 (IC50, μmol) ([2]; Table iii)	IC50 ([2]; Table iv)	SMILES
< 600 nM	< 600 nM				Cn1nc(C(F)(F)F)cc1-c1ccc(NCc2c(F)cncc2F)cc1F
> 1200 nM	600 to 1200 nM				Cc1nnsc1CNc1ccc(-c2cc(C(F)(F)F)nn2C)c(F)c1
	< 600 nM	—			Cn1nc(C(F)(F)F)cc1-c1c(F)cc(NCc2ccc(F)cc2F)cc1F
< 600 nM	< 600 nM				Cn1nc(C(F)(F)F)cc1-c1ccc(NCc2c(F)cccc2F)cc1
< 600 nM	< 600 nM				Cn1nc(C(F)(F)F)cc1-c1ccc(NCc2c(F)cncc2F)cc1
< 600 nM	< 600 nM				Fc1ccccc1CNc1ccc(-n2nc(C(F)(F)F)cc2C(F)(F)F)cc1
600 to 1200 nM	< 600 nM				Cc1cc2c(cc1-c1ccc(NCc3ccncc3F)cc1)OC(F)(F)O2
600 to 1200 nM	< 600 nM				Cc1cc2c(cc1-c1ccc(NCc3cncc(F)c3)cc1)OC(F)(F)O2
	< 600 nM	Max inh. <50%			Cc1cc2c(cc1-c1ccc(NCc3c(C)cccc3F)cc1F)OC(F)(F)O2
< 600 nM	< 600 nM				Cc1nc(C(F)(F)F)cn1-c1ccc(NCc2c(F)ccc(F)c2F)cc1
< 600 nM	< 600 nM				Cc1nn(C(F)F)cc1-c1ccc(NCc2c(F)cccc2F)cc1
< 600 nM	< 600 nM				Cc1cccc(F)c1CNc1ccc(-c2cn(C(F)F)nc2C)cc1
600 to 1200 nM	< 600 nM				Cc1ccccc1CNc1ccc(-c2cn(C(F)F)nc2C)c(F)c1
< 600 nM	< 600 nM				CCn1nc(C(F)(F)F)cc1-c1ccc(NCc2c(F)cccc2F)cc1
< 600 nM	< 600 nM				CCn1nc(C(F)(F)F)cc1-c1ccc(NCc2ccccc2F)cc1F
600 to 1200 nM	< 600 nM				Cc1ccccc1CNc1ccc(-c2nc(C(F)(F)F)sc2C)cc1
< 600 nM	< 600 nM				Cc1sc(C(F)(F)F)nc1-c1ccc(NCc2ccccc2F)cc1
< 600 nM	< 600 nM				Cc1sc(C(F)(F)F)nc1-c1ccc(NCc2c(F)cccc2F)cc1
< 600 nM	< 600 nM				Cc1cc(F)ccc1CNc1ccc(-c2cc(C(F)(F)F)nn2C)c(F)c1
600 to 1200 nM	< 600 nM				Cc1cc(F)ccc1CNc1ccc(-n2nc(C(F)(F)F)cc2C)c(F)c1
				< 600 nM	O=C(Nc1ccc(-n2nc(C(F)(F)F)cc2C(F)(F)F)cc1)c1ccccc1F
